Data as given in US20190300851A1, “HUMAN STEM CELL DERIVED ENDOTHELIAL CELLS, ENDOTHELIAL-HEPATOCYTE CO-CULTURE SYSTEM AND USES THEREOF” (AGENCY FOR SCIENCE, TECHNOLOGY AND RESEARCH, priority 2016, published 2019).
Entries after “also recorded” stand apart in the source; their conditions may differ. Where two headings read alike, the source gives them in different places.

Assays:
NFκB [1] = assay: hPSC-HEP conditioned media on IL-1β-stimulated hPSC-ECs: NFκB nuclear translocation; format: cell-based, human; conditions: hPSC-HEP conditioned media (10 μM, 48 hour) on IL-1β-stimulated hPSC-ECs
Procedure: (§1) HPSC-HEPs (1.25×10^5 cells/cm^2) were cultured for 48 hour in 1:1 William's E medium+EGM-2 without serum containing 10 μM Quercetin or 10 μM Genistein. Conditioned media from hPSC-HEPs treated with quercetin or genistein were collected, and added to hPSC-ECs (that were serum starved overnight) along with 20 ng/ml of IL-13 for determination of NFκB nuclear colocalization (at 1 hour), gene expression profile of inflammatory markers (at 6 hour), and IL-8 protein levels (1 day) upon inflammation.
(§2) Cells were fixed with 4% paraformaldehyde (Nacalai Tesque, cat. no. 09154-14) and permeabilized by 0.5% Triton X-100 (Acros Organics, cat. no. 215680010) in PBS with Ca^2+ and MG^2+ at room temperature. Blocking was performed using PBS with 10% serum overnight at 4° C. Cells were incubated with the respective primary antibody diluted in 0.1% serum containing PBS for 1 hour and secondary antibodies in 0.1% serum containing PBS for another hour. Washes were performed twice using 0.1% serum containing PBS. DAPI (1 μg/ml, Thermo, cat. no. D3571) was used to stain the cell nucleus for 10 min.

[2] = test system: IL-1β-stimulated hPSC-HEPs; assay: Inflammatory marker gene expression (qPCR) in IL-1β-stimulated hPSC-HEPs; format: cell-based, human; conditions: 10 μM, 48 hours
Procedure: (§3) Hepatocytes were generated from hPSCs by a growth factor-based differentiation protocol described in our previous protocol. After 20 days of differentiation, the cells were harvested using a serial 2× TrypLE Express treatment and further dissociated into single cells by passing them through a 40 μm cell strainer. These single cells were then seeded at 2.5×10^5 cells per well in a Collagen I (50 μg/ml, Biolaboratories, Cat. No.: 354236)-coated dishes. Attachment and recovery were promoted by seeding them in step IV differentiation medium with Hepatocyte growth factor (R&D, Cat. No.: 294-HGN-005), Follistatin (R&D, Cat. No.: FS-288), Oncostatin (R&D, Cat. No.: 295-OM-010) and Y-27632 (Rock Inhibitor) to prevent anoikis in the freshly harvested hPSC-HEPs. Next day, media was changed to Williams E medium (Sigma, Cat. No.: W1878) without serum and cells were serum starved overnight prior to nutraceutical treatments. Nutraceuticals quercetin (Sigma, Cat. No.: Q4951) and genistein (Sigma, Cat. No.: G6649) were administered at a single dose of 10 μM. Hepatocytes in this work were derived from H9-ESCs. In hepatic characterization, primary human hepatocytes (PHH) and HUH7 cells were used as positive controls, while HeLa cells were used as negative control.
Total RNA was prepared using RNeasy mini kit (Qiagen, cat. no. 74104). […]

[3] = test system: co-culture of hPSC-ECs and hPSC-HEPs; assay: LC-MS metabolite profile in co-cultured media of hPSC-ECs and hPSC-HEPs; format: in vitro ADME, human
Procedure: (§4) H9-ESCs were used to generate the ECs and hepatocytes for co-culture experiments and assays with nutraceuticals. Both cell types were derived from an isogenic source of hPSC to ensure a robust endothelial-hepatic model without confounding phenotypic differences due to genetic variations. The IBIDI μ-slide 2×9 wells were used for creating the co-culture setup. Each minor well was first coated with Collagen I and then a total of 2.5×10^5 hPSC-ECs and hPSC-HEPs were seeded in individual wells in a 1:1 ratio within a major well to allow equivalent contribution of paracrine factors between the two cell types (FIG. 5A). After cell attachment, the media was changed to 1:1 William's E and EGM-2 without serum, to be commonly shared by hPSC-ECs and hPSC-HEPs in a major well. Upon overnight serum starvation, the co-cultures were pre-conditioned with 10 μM of Quercetin or Genistein for 48 hours prior to IL-1β stimulation.
(§5) The metabolic potential of the hPSC-HEPs and primary rat hepatocytes (freshly isolated according to our previously established protocol) were tested by exposing them to nutraceuticals quercetin and genistein (10 μM) over different durations. Internal standard (Emodin, 10 ng/ml) was added to the conditioned media. The SPE column (Phenomenex, Strata C18-E, 55 μm, 70 Å) was conditioned by washing with 1 ml methanol and then 2 ml DI water. […]

[4] = cited from earlier work
NFκB [5] = assay: NFκB nuclear translocation (immunostaining) in IL-1β-stimulated hPSC-ECs, monoculture; format: cell-based, human; conditions: for NFκB nuclear translocation levels: 10 μM, IL-1β-stimulated hPSC-ECs, monoculture
Procedure: (§6) After the hPSC colonies attached, they were first induced to drive early mesoderm differentiation for 36 hours, using a chemically defined media, supplemented with human recombinant FGF2 (20 ng/ml, R&D Systems, cat. no. 233-FB), LY294002 (10 μM, Sigma, cat. no. L9908), and human recombinant BMP4 (10 ng/ml, R&D Systems, cat. no. 314-BP). Lateral plate mesoderm was further induced for another 3.5 days in media supplemented with human recombinant FGF2 (20 ng/ml) and BMP4 (50 ng/ml), with media change every 2 days. On day 5, the lateral plate mesoderm population was trypsinized using TrypLE Express (Gibco, cat. no. 12604) and plated on matrigel-coated plates in the same basal media supplemented with FGF2 (4 ng/ml), SB431542 (10 μM, Sigma, cat. no. S4317) and VEGF (50 ng/ml, R&D Systems, cat. no. 293-VE) with media change every 2-3 days. On day 10, PECAM1-expressing endothelial cells were sorted using fluorescence-activated cell sorting with PECAM1 antibody (Biolegend, cat. no. 303110). The PECAM1+ cells were plated at a density of 5×10^4/cm^2 onto collagen I-coated plate in commercial media EGM-2 (Lonza, cat. no. CC-3162). For every 500 ml EGM-2 media used, the following supplements are included: human epidermal growth factor (0.5 ml); VEGF, 0.5 ml; R3-insulin growth factor-1, 0.5 ml; Ascorbic acid, 0.5 ml; Hydrocortisone, 0.2 ml; hFibroblast growth factor-beta, 2.0 ml; FBS, 10.0 ml; Gentamicin Amphotericin, 0.5 ml. hPSC-ECs were passaged using TrypLE Express when they reached more than 75% confluency. Fresh complete EGM-2 media were replaced every 2-3 days. All experiments were performed on cells up to passage 10. hPSC-ECs derived from three different cell lines, H9-ESCs (FIGS. 1-5), IMR90-iPSCs and BJ-iPSCs (FIGS. 7-8), were functionally characterized and used in inflammatory activation assays. In EC marker and functional characterization, human coronary artery ECs (HCAECs) were used as positive control, while HeLa cells and human hepatocellular carcinoma cells (HUH7) were used as negative controls.
as §2

IL-8 [6] = assay: IL-8 ELISA of conditioned media of IL-1β-stimulated hPSC-HEPs; format: cell-based, human; conditions: 10 μM, 48 hours
Procedure: as §3, with “In hepatic characterization, primary human hepatocytes (PHH) and HUH7 cells were used as positive controls, while HeLa cells were used as negative control.” left out
(§7) Conditioned EGM-2 media were collected, and concentration of human IL-8 was determined using the human IL-8 ELISA kit (Invitrogen, cat. no. KHC0081) according to manufacturer's instructions.

NFκB [7] = assay: Endothelial-hepatocyte co-culture: NFκB nuclear translocation in IL-1β-stimulated hPSC-ECs; format: cell-based, human; conditions: co-culture of hPSC-ECs with hPSC-HEPs, 10 μM for 48 hours prior to IL-1β stimulation
Procedure: as §4
as §2, with “Washes were performed twice using 0.1% serum containing PBS. DAPI (1 μg/ml, Thermo, cat. no. D3571) was used to stain the cell nucleus for 10 min.” left out

hPSC-HEPs = assay: LC-MS metabolic profile of nutraceuticals by hPSC-HEPs; format: in vitro ADME, human; conditions: 10 μM
Procedure: as §3
as §5, with “water. Conditioned media was added into the column and 1.5 mL 30% methanol was added to elute the impurity such as phenol red in the medium. 0.1% Formic acid methanol was added to the column to elute all the metabolites and internal standard out to a 15 mL tube. Liquid in the 15 mL tube was dried under N2 in a sample concentrator with 30° C. heater.” for “water.”

[8] = test system: hPSC-HEP conditioned media treated on hPSC-ECs; assay: LC-MS metabolite profile in hPSC-HEP conditioned media treated on hPSC-ECs; format: in vitro ADME, human; conditions: conditioned media setting
Procedure: as §1
as §5, with “water. Conditioned media was added into the column and 1.5 mL 30% methanol was added to elute the impurity such as phenol red in the medium. 0.1% Formic acid methanol was added to the column to elute all the metabolites and internal standard out to a 15 mL tube. Liquid in the 15 mL tube was dried under N2 in a sample concentrator with 30° C. heater.” for “water.”

IL-8 [9] = assay: Endothelial-hepatocyte co-culture: IL-8 protein; format: cell-based, human; conditions: co-culture of hPSC-ECs with hPSC-HEPs, 10 μM for 48 hours prior to IL-1β stimulation
Procedure: as §4, §7

primary rat hepatocytes = assay: LC-MS metabolic profile of nutraceuticals by primary rat hepatocytes; format: in vitro ADME; conditions: 10 μM
Procedure: The metabolic potential of the hPSC-HEPs and primary rat hepatocytes (freshly isolated according to our previously established protocol) were tested by exposing them to nutraceuticals quercetin and genistein (10 μM) over different durations. Internal standard (Emodin, 10 ng/ml) was added to the conditioned media. The SPE column (Phenomenex, Strata C18-E, 55 μm, 70 Å) was conditioned by washing with 1 ml methanol and then 2 ml DI water. Conditioned media was added into the column and 1.5 mL 30% methanol was added to elute the impurity such as phenol red in the medium. 0.1% Formic acid methanol was added to the column to elute all the metabolites and internal standard out to a 15 mL tube. Liquid in the 15 mL tube was dried under N2 in a sample concentrator with 30° C. heater. After drying the sample, 100 μL of 0.1% formic acid methanol was added to the 15 mL tube and vortex for 30 s and transfer to another 1.5 mL tube. The samples were then centrifuged at 13,000 rpm for 10 min at 4° C. and 10 μl of the supernatant was injected into LC-MS. High performance liquid chromatography combined with electrospray ionization ion trap time-of-flight multistage mass spectrometry (HPLC-DAD-ESI-ITTOF-MSn) analyses were performed with a Shimadzu LCMS-IT-TOF instrument, which was composed of two LC-20AD pumps, an SIL-20AC autosampler, a CTO-20A column oven, a CBM-20A system controller, an ESI ion source, and an IT-TOF mass spectrometer (Shimadzu, Kyoto, Japan).

IL-8 [10] = assay: IL-8 ELISA of conditioned media of IL-1β-stimulated hPSC-ECs, monoculture; format: cell-based, human; conditions: for IL-8 protein levels from conditioned media: 10 μM, 48 hours, IL-1β-stimulated hPSC-ECs, monoculture
Procedure: as §6, §7

[11] = test system: IL-1β-stimulated hPSC-ECs; assay: Inflammatory marker gene expression (qPCR) in IL-1β-stimulated hPSC-ECs, monoculture; format: cell-based; conditions: for gene expression of inflammatory markers versus IL-1β stimulated levels: 10 μM, up to 72 hours, IL-1β-stimulated hPSC-ECs, monoculture
Procedure: as §6
Total RNA was prepared using RNeasy mini kit (Qiagen, cat. no. 74104). Each RNA sample (250 ng) was reverse transcribed into cDNA using Maxima First Strand cDNA Synthesis kit (Thermo, cat. no. K1641). qPCR was performed on a StepOnePlus Real-Time PCR system (Thermo) using FAST SYBR green master mix (Thermo, cat. no. 4385616). Expression levels were normalized to the housekeeping gene glyceraldehyde 3-phosphate dehydrogenase (GAPDH).

hPSC-ECs = assay: LC-MS metabolic profile of nutraceuticals by hPSC-ECs; format: in vitro ADME, human; conditions: hPSC-EC conditioned media
[12] = higher concentrations; cited from earlier work
[13] = BJ-ECs and IMR90-ECs, IL-1β stimulation

| Compound | NFκB nuclear translocation (NFκB [1]) | inflammatory gene (marker) expression [2] | plasma concentrations [4] [nM] | NFκB nuclear translocation levels (NFκB [5]) | production of IL-8 protein from conditioned media (IL-8 [6]) | NFκB nuclear translocation (colocalization) (NFκB [7]) | IL-8 protein levels / secretion (IL-8 [9]) | IL-8 protein levels from conditioned media (IL-8 [10]) | gene expression of inflammatory markers versus IL-1β stimulated levels [11] | further results |
| --- | --- | --- | --- | --- | --- | --- | --- | --- | --- | --- |
| O=c1c(-c2ccc(O)cc2)coc2cc(O)cc(O)c12 [genistein] | did not seem to inhibit | significant reduction; also recorded: decreased most of the inflammatory marker expression | 30 to 16340 | remained elevated | significantly suppressed | significant suppression; also recorded: significantly decreased | remarkably decreased; also recorded: significantly reduced | no significant reduction | did not show substantial reduction | metabolites detectable in medium ([3]; endothelial-hepatic co-culture, LC-MS): detectable levels of various metabolites; levels of metabolites over time (hPSC-HEPs; hPSC-HEPs, LC-MS): increased over time; also recorded: increased with time; also recorded: giving rise to metabolites; level of parent nutraceutical over time (hPSC-HEPs; in the presence of hPSC-HEPs, LC-MS): gradually declined over time; metabolites detectable in medium [8]: but not in the conditioned media setting; level of parent nutraceutical over time (primary rat hepatocytes; freshly isolated primary rat hepatocytes, LC-MS): declined over time; formation of metabolites (primary rat hepatocytes; primary rat hepatocytes, LC-MS): giving rise to metabolites |
| O=c1c(O)c(-c2ccc(O)c(O)c2)oc2cc(O)cc(O)c12 [quercetin] | did not seem to inhibit | significant reduction; also recorded: decreased most of the inflammatory marker expression | 300 to 3500 | remained elevated | significantly suppressed | significant suppression; also recorded: significantly decreased | remarkably decreased; also recorded: significantly reduced | no significant reduction | did not show substantial reduction | metabolites detectable in medium [3]: detectable levels of various metabolites; bioavailability in human plasma ([4]; human plasma): very low; level of parent nutraceutical over time (hPSC-ECs): decrease over time; safety and tolerability [12]: safe and well tolerated; optimal duration of conversion into metabolites (most metabolites peaked) (hPSC-HEPs; human): 48 h; time of treatment by which substantial metabolites had emerged (primary rat hepatocytes; rat): ≤ 6 h |
| IL-1β: human recombinant inflammatory cytokine, interleukin-1 beta, used to stimulate inflammation [reference compound] | – | – | – | – | – | – | – | – | – | NFκB nuclear translocation (NFκB [5]; [13]): increase; nuclear translocation of NFκB (NFκB [5]; H9-derived hPSC-ECs, IL-1β 20 ng/ml, 1 hour): evident; IL-8 production (IL-8 [10]; [13]): elevated; production of IL-8 from conditioned media versus unstimulated cells (IL-8 [10]; H9-derived hPSC-ECs, IL-1β-stimulated): significantly higher; expression of inflammatory genes [11, 13]: up-regulation; expression of inflammatory genes versus unstimulated ([11]; H9-derived hPSC-ECs, human recombinant IL-1β 20 ng/ml, 6 hours): significant up-regulation |
